According to patent publication US11202773B2, “Locally bioavailable drugs” (UNIVERSITY OF HOUSTON SYSTEM, priority 2015, dated 2021):
pIC50: −log10 of the molar value.

Columns and labels:
[1] = Solubility in HBSS with or without β-cyclodextrin; assay type: physicochemical
[2] = tested on: human intestine microsomes; experiment: Glucuronidation by human intestine microsomes; assay type: in vitro ADME
Method: (§1) FIG. 5D is a bar graph illustrating in vitro metabolism of phenolics. Glucuronidation rates of 6a1-6a4 by human liver and intestinal microsomes. Additional metabolic rates of various locally bioavailable COX-2 inhibitors are in Table 4. […]. The incubation systems were: for glucuronidation, 0.88 mM magnesium chloride (MgCl2), 4.4 mM saccharolactone, 0.022 mg/mL alamethicin, 3.5 mM uridine 5′-diphospho-glucuronic acid (UDPGA), 10 μM substrates and different concentrations of microsomes in 50 mM potassium phosphate buffer (pH 7.4); for sulfation, 10 mM dithiothreitol (DTT), 5 mM MgCl2, 100 μM 3′-phosphoadenosine-5′-phosphosulfate (PAPS),10 μM substrate and different concentrations of S9 fractions in 50 mM potassium phosphate buffer (pH 7.4).
(§2) In vitro tools were employed to help predict the in vivo metabolism rates of the COX-2 inhibitors that are phenolics. The microsomes and S9 fractions prepared from colon or liver were used to determine the in vivo glucuronidation and sulfation rates of the phenolic compounds, respectively. By employing microsomes and S9 fractions prepared from both rats and humans, it could be determined if the results obtained in the rat model could be reasonably extrapolated to humans. In these experiments, raloxifene and genistein, two phenolic compounds which undergo extensive first-pass metabolism, were selected as controls.

[3] = tested on: rat liver microsomes; experiment: Glucuronidation by rat liver microsomes; assay type: in vitro ADME
Method: as §1, with “FIG. 5A” for “FIG. 5D”, “of phenolics via glucuronidation pathway.” for “of phenolics.”, “of all the new locally bioavailable COX-2 inhibitors” for “of 6a1-6a4”, “by rat” for “by human”, “liver” for “liver and intestinal”, “Table 3.” for “Table 4.”
as §2

[4] = biological target: recombinant human COX-1 (Homo sapiens, UniProt P23219); experiment: In vitro enzyme assay, recombinant human COX-1; assay type: biochemical; settings: read-out: IC50 against recombinant human COX-1
[5] = tested on: human Colon S9; experiment: Sulfation by human colon S9; assay type: in vitro ADME; settings: substrate 10 μM
Method: as §1, §2

[6] = biological target: T1, human COX-2 (Homo sapiens, UniProt P35354); experiment: In vitro enzyme assay, recombinant human COX-2 (PGE2 production); assay type: biochemical; settings: for pIC50: read-out: IC50 against recombinant human COX-2; for Inhibition of COX-2 enzyme (PGE2 production, FIG. 3A): result in words
T1 sequence (P35354 18-604): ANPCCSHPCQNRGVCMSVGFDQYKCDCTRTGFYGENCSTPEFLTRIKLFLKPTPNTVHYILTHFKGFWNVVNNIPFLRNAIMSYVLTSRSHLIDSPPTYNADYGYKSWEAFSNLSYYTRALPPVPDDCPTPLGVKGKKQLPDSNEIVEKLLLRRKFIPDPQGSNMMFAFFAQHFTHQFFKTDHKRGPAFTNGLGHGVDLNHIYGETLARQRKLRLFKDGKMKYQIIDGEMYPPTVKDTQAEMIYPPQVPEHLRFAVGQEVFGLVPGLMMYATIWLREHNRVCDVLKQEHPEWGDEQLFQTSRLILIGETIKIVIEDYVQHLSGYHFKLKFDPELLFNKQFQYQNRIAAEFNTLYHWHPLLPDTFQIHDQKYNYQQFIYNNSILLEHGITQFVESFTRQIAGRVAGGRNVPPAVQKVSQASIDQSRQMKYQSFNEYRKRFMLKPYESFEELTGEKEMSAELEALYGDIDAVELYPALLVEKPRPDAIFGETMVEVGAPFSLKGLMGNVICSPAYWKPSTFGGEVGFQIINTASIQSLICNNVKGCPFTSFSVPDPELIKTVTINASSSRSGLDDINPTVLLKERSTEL
Text: FIG. 3A is a bar graph illustration of PGE2 production by recombinant human COX-2 enzyme in the presence of the new compounds. Less PGE2 production means inhibition of COX-2 enzyme.
FIG. 3B is a bar graph illustration of PGE2 production by recombinant human COX-2 enzyme in the presence of the metabolites of the new compounds. Less PGE2 production means inhibition of COX-2 enzyme.

[7] = tested on: human Colon S9; experiment: Glucuronidation by human colon S9; assay type: in vitro ADME; settings: substrate 10 μM
Method: as §1
as §2, with “The microsomes and S9 fractions prepared from colon or liver were used to determine the in vivo glucuronidation and sulfation rates of the phenolic compounds, respectively.” left out

[8] = tested on: rat colon microsomes; experiment: Glucuronidation by rat colon microsomes; assay type: in vitro ADME
Method: FIG. 5B is a bar graph illustrating in vitro glucuronidation of phenolics in liver and colon microsomes of rats. Glucuronidation rates of 6a1-6a4 by rat liver and colon microsomes were measured. Additional metabolic rates of various locally bioavailable COX-2 inhibitors are in Table 3. […]. The incubation systems were: for glucuronidation, 0.88 mM magnesium chloride (MgCl2), 4.4 mM saccharolactone, 0.022 mg/mL alamethicin, 3.5 mM uridine 5′-diphospho-glucuronic acid (UDPGA), 10 μM substrates and different concentrations of microsomes in 50 mM potassium phosphate buffer (pH 7.4); for sulfation, 10 mM dithiothreitol (DTT), 5 mM MgCl2, 100 μM 3′-phosphoadenosine-5′-phosphosulfate (PAPS), 10 μM substrate and different concentrations of S9 fractions in 50 mM potassium phosphate buffer (pH 7.4).
as §2

[9] = rat, in vivo, po, 20 mg/kg
Method: The drugs were dispersed in ORA-PLUS® suspension vehicle (from Paddock Laboratories, Minneapolis, Minn.) and administrated to SD rats by oral gavage. The blood samples were collected from the tail tips at different time points.
Therefore, 20 mg/kg 6a1 was administered in suspension vehicle to the proximal colon of SD rats via a catheter reaching approximately 8 cm deep into the anus.

Sequence of recombinant human COX-1 (P23219 24-599): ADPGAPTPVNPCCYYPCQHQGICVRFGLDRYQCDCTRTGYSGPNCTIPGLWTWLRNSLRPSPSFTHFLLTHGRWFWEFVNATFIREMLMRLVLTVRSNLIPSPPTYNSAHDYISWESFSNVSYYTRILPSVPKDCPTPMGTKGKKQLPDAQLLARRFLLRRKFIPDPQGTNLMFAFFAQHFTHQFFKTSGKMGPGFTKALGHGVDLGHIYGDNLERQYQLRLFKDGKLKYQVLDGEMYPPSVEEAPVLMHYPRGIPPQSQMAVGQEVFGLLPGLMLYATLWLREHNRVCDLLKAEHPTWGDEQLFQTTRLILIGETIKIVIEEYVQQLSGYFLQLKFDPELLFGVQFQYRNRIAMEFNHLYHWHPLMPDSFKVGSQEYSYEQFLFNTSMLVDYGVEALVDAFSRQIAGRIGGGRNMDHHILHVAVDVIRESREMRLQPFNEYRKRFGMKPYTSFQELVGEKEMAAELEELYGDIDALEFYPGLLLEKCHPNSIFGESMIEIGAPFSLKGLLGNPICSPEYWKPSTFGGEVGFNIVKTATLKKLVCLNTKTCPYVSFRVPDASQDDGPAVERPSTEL

Osmotic pressure of the solution ([1]; 6a1 in HBSS with 4 mM β-CD)	Solubility in HBSS ([1]; in the presence of 4 mM β-CD, after sonication and centrifuge)	Glucuronidation rates by intestine microsomes (Mean) [2]	Glucuronidation by rat liver microsomes (FIG. 5A) [3]	Glucuronidation rates by liver microsomes (Mean) [3]	pIC50 [4]	Sulfation rates by human Colon S9 (Mean) [5]	pIC50 [6]	Inhibition of COX-2 enzyme (PGE2 production, FIG. 3A) [6]	Glucuronidation rates by human Colon S9 (Mean) [7]	Glucuronidation rates by colon microsomes (Mean) [8]	Peak blood concentration [9]	SMILES
290 mOsm/kg	70 µM	2786 pmol/mg/min	rapidly glucuronidated	6299 pmol/mg/min	5.29	110 pmol/mg/min	6.93	effective inhibitors	1080 pmol/mg/min	1111 pmol/mg/min		Cc1ccc(-c2cc(COc3ccccc3O)nn2-c2ccc(S(N)(=O)=O)cc2)cc1 [Compound 6a1]
		924 pmol/mg/min	rapidly glucuronidated	3570 pmol/mg/min	4.56		6.70	effective inhibitors		1199 pmol/mg/min		Cc1ccc(-c2cc(COc3cccc(O)c3)nn2-c2ccc(S(N)(=O)=O)cc2)cc1 [Compound 6a2]
		45 pmol/mg/min		590 pmol/mg/min	4.42		5.97	effective inhibitors		301 pmol/mg/min	1.69 µM	Cc1ccc(-c2cc(COc3ccc(O)cc3)nn2-c2ccc(S(N)(=O)=O)cc2)cc1 [Compound 6a3]
